Where a name gives a salt, the structure may show the parent alone. Read-outs that look alike come from different tables or passages of the source.
Experiments:
human IKK-β = target: T1, human IKK-β (Homo sapiens, UniProt O14920); test: IKK-β kinase inhibitory assay; type: biochemical; settings: compounds of about 40 to 90% purity, read-out: In vitro activity grade (invitro, IC50)
T1 construct: A cDNA fragment encoding human IKK-β open reading frame was generated by PCR; His; made in house; host or cells: Sf21 insect cells (baculovirus); the GST-IκBα substrate was made in E. coli
T1 sequence (O14920 1-756): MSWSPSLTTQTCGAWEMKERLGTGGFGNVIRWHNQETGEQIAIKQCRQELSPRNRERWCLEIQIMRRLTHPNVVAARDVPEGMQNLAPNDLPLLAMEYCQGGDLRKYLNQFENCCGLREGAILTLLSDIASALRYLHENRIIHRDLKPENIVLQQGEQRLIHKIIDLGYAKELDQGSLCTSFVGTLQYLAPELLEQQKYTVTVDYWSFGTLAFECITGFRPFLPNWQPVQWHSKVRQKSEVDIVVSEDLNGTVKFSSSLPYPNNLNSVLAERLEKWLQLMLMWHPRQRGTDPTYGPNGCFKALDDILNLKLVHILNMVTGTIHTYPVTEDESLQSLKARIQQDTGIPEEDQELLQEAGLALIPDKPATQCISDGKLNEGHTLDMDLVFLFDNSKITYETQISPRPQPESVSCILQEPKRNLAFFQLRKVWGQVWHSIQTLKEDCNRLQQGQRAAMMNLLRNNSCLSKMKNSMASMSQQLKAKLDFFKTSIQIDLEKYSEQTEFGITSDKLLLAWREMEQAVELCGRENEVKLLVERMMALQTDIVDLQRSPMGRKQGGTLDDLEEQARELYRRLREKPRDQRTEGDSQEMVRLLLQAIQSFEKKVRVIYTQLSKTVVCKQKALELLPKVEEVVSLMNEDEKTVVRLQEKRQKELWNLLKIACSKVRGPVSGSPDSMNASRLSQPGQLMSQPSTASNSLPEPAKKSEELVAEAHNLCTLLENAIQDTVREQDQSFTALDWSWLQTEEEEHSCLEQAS
From the text: IKK-β Kinase Inhibitory Assay.
• (1) Preparation of IKK-β Kinase Protein. • A cDNA fragment encoding human IKK-β open reading frame was generated by PCR with the use of a pair of primers designed from the published sequence (Woronicz J D et al. (1997) Science 278,866-869). A template was obtained from Quickclone cDNA (Clontech) using Elongase™ Amplification kit (Life Technologies). The DNA fragments generated by PCR were gel-purified and subcloned into pBluescript. The cDNA fragment cloned in pBluescript was inserted into pcDNA3.1/His C KpnI/NotI, and transferred into pVL1393 SmaI/XbaI (Pharmingen) to construct a baculovirus transfer vector. Then the vector, together with the linearized baculovirus (BaculoGold™, Pharmingen) was used to transfect Sf21 cells (Invitrogen, San Diego, Calif.). Generated recombinant baculovirus was cloned and amplified in Sf21 cells, grown in TNM-FH insect cell medium (Life Technologies, Inc.) supplemented with 10% FCS, […] Gentamycin, 0.1% Pluronic F-68 (Life Technologies, Inc.) as suspension culture (200 ml in 1 L Erlenmeyer flask; 27° C.; 130 rpm). Sf21 cells were infected with this amplified virus with a multiplicity of infection of 5 following standard protocols (Crossen R, Gruenwald S (1997) Baculovirus Expression Vector System Instruction Manual, Pharmingen Corporation) and harvested 48 hrs. later. The cells were lysed to obtain the produced chimeric protein of IKK-β kinase fused by histidine (His-tagged IKK-beta). • (2) The Preparation of Purified GST-IκBα Fusion Proteins • An expression vector containing the nucleotide sequence encoding fusion protein of GST with amino acid residues 1 to 54 of IκBα under the control of an IPTG-inducible promoter was constructed. The expression vector was introduced in E. coli and the transformant was cultured and lysed to obtain a GST-IκBα fusion protein. Then the resulting GST-IκBα fusion protein was purified and biotinated for kinase assay. • (3) The Measurement of IKK-β Kinase Activity • The 96-well format kinase assay of IKK-β was performed to test the inhibitory activity of the compounds of the present invention. First, 5 μl of a test compound was put in the presence of 2.5% dimethyl sulfoxide (DMSO) in each well in a U-bottomed 96-well plate (Falcon). For control wells of background (BG) and total phosphorylation (TP), 5 μl of 2.5% DMSO was put. Recombinant IKK-β (final 0.6 μg/ml) and bio-GST-IκBα (1-54) (final 0.2 μM) were diluted in 25 μl of 2×kinase buffer β (40 mM Tris-HCl, pH 7.6, 40 mM MgCl2, 40 mM β-glycerophosphate, 40 mM p-nitrophenyl-phosphate, 2 mM EDTA, 40 mM creatine phosphate, 2 mM DTT, 2 mM Na3VO4, 0.2 mg/ml BSA and 0.8 mM phenylmethylsulfonyl fluoride) and transferred to the 96-well plate. Bio-GST-IκBα (1-54) in 25 μl of 2×kinase buffer β without IKK-β was transferred to BG wells. Then 20 μl of 12.5 μM ATP, 62.5 μCi/ml [γ-^33P] ATP (Amersham Pharmacia Biotech) was added and the resulting mixture was incubated for 2 hrs. at room temperature. The kinase reactions were terminated by the addition of 150 μl of termination buffer (100 mM EDTA, 1 mg/ml BSA, 0.2 mg NaN3). One handred and fifty μl of the sample was transferred to a streptavidin-coated, white MTP (Steffens Biotechniche Analysen GmbH #08114E14. FWD) to capture the biotinylated substrates. After 1 hr. of incubation, non-bound radioactivity was eliminated by washing the wells five times with 300 μl of washing buffer including 0.9% NaCl and 0.1% (w/v) Tween-20 with the use of a MW-96 plate washer (BioTec). The bound radioactivity was determined after the addition of 170 μl MicroScint-PS scintillation cocktail (Packard) using a TopCount scintillation counter. Syk Tyrosine Kinase Inhibitory Assay for Selectivity. • (1) Preparation of Syk Protein • A cDNA fragment encoding human Syk openreading frame was cloned from total RNA of human Burkitt's lymphoma B cell lines, Raji (American Type Culture Collection), with the use of RT-PCR method. […]

[1] = tested on: RANTES production in response to TNF-α from A549 cells; test: RANTES production in response to TNF-α from A549 cells; type: cell-based, human; settings: 100 ng/ml TNF-α, compounds of about 40 to 90% purity, read-out: Cellular activity grade (A549, IC50)

Structure (SMILES)	IC50 (human IKK-β)	IC50 ([1]; Homo sapiens, A549, 24 h)	IC50 ([1]; 24 hrs)
N#Cc1c(-c2cccc(NC(=O)C(O)CCC(=O)O)c2)cc(-c2cc(F)ccc2O)nc1N (stereo not drawn) [Example 1-16]	500 to 2000 nM	> 10000 nM	–
N#Cc1c(-c2ccc(N3CCCC3)c(NC(=O)CCN)c2)cc(-c2ccccc2O)nc1N [Example 3-04]	< 500 nM	1000 to 10000 nM	–
N#Cc1c(-c2cccc(NC(=O)C(O)CCC(=O)O)c2)cc(-c2ncccc2O)nc1N (stereo not drawn) [Example 1-22]	500 to 2000 nM	> 10000 nM	–
N#Cc1c(-c2cc(NC(=O)CCN)ccc2F)cc(-c2ccccc2O)nc1N [Example 2-12]	2000 to 10000 nM	> 10000 nM	–
N#Cc1c(-c2cccc(NC(=O)CCN3CCCCC3)c2)cc(-c2ncccc2O)nc1N [Example 2-17]	500 to 2000 nM	> 10000 nM	–
N#Cc1c(-c2ccc(N)c(O)c2)cc(-c2ccccc2O)nc1N [Example 2-15]	< 500 nM	1000 to 10000 nM	–
N#Cc1c(-c2cccc(NC(=O)C3CCC(=O)O3)c2)cc(-c2ccccc2O)nc1N (stereo not drawn) [Example 1-1, N-{3-[2-amino-3-cyano-6-(2-hydroxyphenyl)-4-pyridinyl]phenyl}-5-oxotetrahydro-2-furancarboxamide]	500 to 2000 nM	–	1000 to 10000 nM
COc1cccc(O)c1-c1cc(-c2cccc(NC(=O)C3CCC(=O)O3)c2)c(C#N)c(N)n1 (stereo not drawn) [Example 1-12]	500 to 2000 nM	> 10000 nM	–
N#Cc1c(-c2cccc(NC(=O)C(O)CCC(=O)O)c2)cc(-c2cc(Cl)ccc2O)nc1N (stereo not drawn) [Example 1-17]	2000 to 10000 nM	> 10000 nM	–
N#Cc1c(-c2cccc(N)c2)cc(-c2ccccc2O)nc1N [Example 1-07]	2000 to 10000 nM	> 10000 nM	–
CCN(CC)c1ccc(-c2cc(-c3ccccc3O)nc(N)c2C#N)cc1NC(=O)CCN1CCCCC1 [Example 3-13]	2000 to 10000 nM	1000 to 10000 nM	–
CN(C)[C@H]1CCN(c2ccc(-c3cc(-c4ccccc4O)nc(N)c3C#N)cc2NC(=O)CNCC2CC2)C1 [Example 3-14]	< 500 nM	1000 to 10000 nM	–
N#Cc1c(-c2cccc(NC(=O)C[C@H](N)C(=O)O)c2)cc(-c2ccccc2O)nc1N [Example 1-09]	< 500 nM	> 10000 nM	–
CN1CCN(C(=O)Nc2cccc(-c3cc(-c4ccccc4O)nc(N)c3C#N)c2)CC1 [Example 2-08]	2000 to 10000 nM	1000 to 10000 nM	–
N#Cc1c(-c2cccc(NC(=O)C3CCC(=O)O3)c2)cc(-c2ncccc2O)nc1N (stereo not drawn) [Example 1-20]	2000 to 10000 nM	> 10000 nM	–

The next lines start with the values.

IC50 (human IKK-β)	IC50 ([1]; Homo sapiens, A549, 24 h)	IC50 ([1]; 24 hrs)	Structure (SMILES)
2000 to 10000 nM	1000 to 10000 nM	–	N#Cc1c(-c2cccc(NC(=O)CN3CCN(C(=O)c4ccco4)CC3)c2)cc(-c2ccccc2O)nc1N [Example 4-03]
< 500 nM	< 1000 nM	–	CC(=O)Nc1ccc(-c2cc(-c3ccccc3O)nc(N)c2CO)cc1O [Example 8-04]
500 to 2000 nM	1000 to 10000 nM	–	N#Cc1c(-c2cccc(NC(=O)CN3CCNCC3)c2)cc(-c2ccccc2O)nc1N [Example 4-07]
500 to 2000 nM	–	1000 to 10000 nM	CN(C)c1ccc(-c2cc(-c3ccccc3O)nc(N)c2C#N)cc1NC(=O)CCN1CCCCC1 [Example 4-36]
< 500 nM	1000 to 10000 nM	–	COCCNCC(=O)Nc1cc(-c2cc(-c3ccccc3O)nc(N)c2C#N)ccc1N1CCC(NC(=O)C(F)(F)F)C1 (stereo not drawn) [Example 4-37]
500 to 2000 nM	1000 to 10000 nM	–	CCN1CCN(CCC(=O)Nc2cccc(-c3cc(-c4ccccc4O)nc(N)c3C#N)c2)CC1 [Example 4-12]
< 500 nM	–	1000 to 10000 nM	CC(=O)Nc1ccc(-c2cc(-c3ccccc3O)nc(N)c2CO)cc1O [Example 8-05]
500 to 2000 nM	1000 to 10000 nM	–	CN(C)c1ccc(-c2cc(-c3ccccc3O)nc(N)c2C#N)cc1NC(=O)CNCC1CC1 [Example 4-1, N^1-[5-[2-amino-3-cyano-6-(2-hydroxyphenyl)-4-pyridinyl]-2-(dimethylamino)phenyl]-N^2-(cyclopropylmethyl)glycinamide hydrochloride]
500 to 2000 nM	1000 to 10000 nM	–	Nc1nc(-c2ccccc2O)cc(-c2cccc(NC(=O)CCN3CCCCC3)c2)c1CO [Example 7-3, N-{3-[2-amino-3-(hydroxymethyl)-6-(2-hydroxyphenyl)-4-pyridinyl]phenyl}-3-(1-piperidinyl)propanamide]
500 to 2000 nM	1000 to 10000 nM	–	CCN1CCN(CC(=O)Nc2cccc(-c3cc(-c4ccccc4O)nc(N)c3C#N)c2)CC1 [Example 4-06]
500 to 2000 nM	1000 to 10000 nM	–	N#Cc1c(-c2cccc(NC(=O)CN3CC=CC3)c2)cc(-c2ccccc2O)nc1N [Example 4-14]
2000 to 10000 nM	> 10000 nM	–	CC(=O)N1CCN(CC(=O)Nc2cccc(-c3cc(-c4ccccc4O)nc(N)c3C#N)c2)CC1 [Example 4-05]
2000 to 10000 nM	1000 to 10000 nM	–	COCCNCC(=O)Nc1cc(-c2cc(-c3ccccc3O)nc(N)c2C#N)ccc1OCC1CC1 [Example 4-32]
500 to 2000 nM	> 10000 nM	–	N#Cc1c(-c2ccc(C(=O)O)cc2)cc(-c2ccccc2O)nc1N [Example 5-02]
500 to 2000 nM	> 10000 nM	–	COCCNCC(=O)Nc1cccc(-c2cc(-c3ccccc3O)nc(N)c2C#N)c1 [Example 4-24]
2000 to 10000 nM	1000 to 10000 nM	–	N#Cc1c(-c2cccc(C(=O)NCCN3CCCCC3)c2)cc(-c2ccccc2O)nc1N [Example 6-1, 3-[2-amino-3-cyano-6-(2-hydroxyphenyl)-4-pyridinyl]-N-[2-(1-piperidinyl)ethyl]benzamide trifluoroacetate]
500 to 2000 nM	1000 to 10000 nM	–	N#Cc1c(-c2cccc(NC(=O)CCN3CCCC4CCCCC43)c2)cc(-c2ccccc2O)nc1N (stereo not drawn) [Example 4-15]
> 10000 nM	1000 to 10000 nM	–	N#Cc1c(-c2ccc(OCC3CC3)c(NC(=O)CNCC3CC3)c2)cc(-c2ccccc2O)nc1N [Example 4-34]
